Reference: patent publication US12139492B2 (Endotarget Inc., priority 2021, dated 2024)
pIC50: −log10 of the molar value.

Legend:
Mino cells = assay: Antiproliferative effect, MTS cell viability assay, Mino cells; type: cell-based; conditions: Homo sapiens, MINO, Mino mantle cell lymphoma cells; read-out: IC50 (anti-proliferation) Mino cells
Outline: (§1)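 Cells were exposed to compound at 0, 0.001, 0.01, 0.1, 1 and 10 μM for 72 h. Viability was then measured by MTS assay, reading formazan produced by metabolically active cells as absorbance at 490 nm.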

BTK [1] = target: T1, BTK (Homo sapiens, UniProt Q06187); assay: Degradation of BTK protein in Namalwa cells (Western blot; DC50, Dmax); conditions: Namalwa B lymphocyte cells, Western blot; for degradation of BTK protein: various concentrations, 24 hours
T1 sequence (Q06187 whole entry): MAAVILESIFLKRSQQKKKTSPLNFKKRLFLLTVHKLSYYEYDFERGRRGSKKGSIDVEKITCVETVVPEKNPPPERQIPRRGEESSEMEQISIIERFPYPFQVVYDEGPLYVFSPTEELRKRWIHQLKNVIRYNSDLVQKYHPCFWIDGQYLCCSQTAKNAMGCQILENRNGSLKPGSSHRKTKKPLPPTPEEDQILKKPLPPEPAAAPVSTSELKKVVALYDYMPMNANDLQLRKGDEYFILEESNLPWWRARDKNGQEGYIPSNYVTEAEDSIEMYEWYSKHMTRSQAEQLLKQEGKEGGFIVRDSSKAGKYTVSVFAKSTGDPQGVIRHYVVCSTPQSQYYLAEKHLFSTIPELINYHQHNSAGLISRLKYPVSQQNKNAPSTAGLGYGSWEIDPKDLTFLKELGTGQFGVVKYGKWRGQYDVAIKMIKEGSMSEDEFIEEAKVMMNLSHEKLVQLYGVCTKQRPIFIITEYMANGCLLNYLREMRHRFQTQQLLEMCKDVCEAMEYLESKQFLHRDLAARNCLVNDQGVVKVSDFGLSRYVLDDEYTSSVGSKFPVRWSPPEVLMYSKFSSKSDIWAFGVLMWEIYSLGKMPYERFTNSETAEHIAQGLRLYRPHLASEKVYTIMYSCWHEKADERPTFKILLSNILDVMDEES

JeKo-1 cells = assay: Antiproliferative effect, MTS cell viability assay, JeKo-1 cells; type: cell-based; conditions: Homo sapiens; JeKo-1 mantle cell lymphoma cells; read-out: IC50 (anti-proliferation) JeKO-1 cells
Outline: as §1

BTK [2] = target: T1, BTK; assay: BTK degradation, DC50 and Dmax of Table 1 (cell line not given); type: cell-based; design: endogenous in cells; conditions: for DC50: concentration giving 50% reduction of BTK expression level

Compound: Nc1ncnc2c1c(-c1ccc(Oc3ccccc3)cc1)nn2C1CCN(CC2CCN(C(=O)N3CCC(C4CCN(c5ccc6c(c5)C(=O)N(C5CCC(=O)NC5=O)C6=O)CC4)CC3)CC2)CC1 (stereo not shown) [Compound 39, 5-(1′-(4-((4-(4-amino-3-(4-phenoxyphenyl)-1H-pyrazolo(3,4-d)pyrimidin-1-yl)piperidin-1-yl)methyl)piperidine-1-carbonyl)-(4,4′-bipiperidin)-1-yl)-2-(2,6-dioxopiperidin-3-yl)isoindoline-1,3-dione]
- pIC50 (Mino cells): 5.00 to 6.00
- degradation of BTK protein at 10^−6 M (BTK [1]): degradation
- degradation of BTK protein (BTK [1]): dose-dependent degradation
- pIC50 (JeKo-1 cells): < 5.00
- Dmax (BTK [2]): > 90%
- DC50 (BTK [2]): > 50 nM

Compound: Nc1ncnc2c1c(-c1ccc(Oc3ccccc3)cc1)nn2[C@@H]1CCCN(CC2CCN(C(=O)N3CCN(c4ccc5c(c4)C(=O)N(C4CCC(=O)NC4=O)C5=O)CC3)CC2)C1 (stereo partly drawn) [Compound 25, 5-(4-(4-(((R)-3-(4-amino-3-(4-phenoxyphenyl)-1H-pyrazolo(3,4-d)pyrimidin-1-yl)piperidin-1-yl)methyl)piperidine-1-carbonyl)piperazin-1-yl)-2-(2,6-dioxopiperidin-3-yl)isoindoline-1,3-dione]
- pIC50 (Mino cells): 5.00 to 6.00
- degradation of BTK protein at 10^−6 M (BTK [1]): degradation
- pIC50 (JeKo-1 cells): 5.00 to 6.00
- Dmax (BTK [2]): > 75%
- DC50 (BTK [2]): > 50 nM

Compound: Nc1ncnc2c1c(-c1ccc(Oc3ccccc3)cc1)nn2[C@@H]1CCCN(C2CCN(C(=O)N3CCC(C4CCN(c5ccc6c(c5)C(=O)N(C5CCC(=O)NC5=O)C6=O)CC4)CC3)CC2)C1 (stereo partly drawn) [Compound 163, 5-(1′-((R)-3-(4-amino-3-(4-phenoxyphenyl)-1H-pyrazolo(3,4-d)pyrimidin-1-yl)-(1,4′-bipiperidine)-1′-carbonyl)-(4,4′-bipiperidin)-1-yl)-2-(2,6-dioxopiperidin-3-yl)isoindoline-1,3-dione]
- pIC50 (Mino cells): 5.00 to 6.00
- degradation of BTK protein at 10^−6 M (BTK [1]): degradation
- degradation of BTK protein (BTK [1]): dose-dependent degradation
- pIC50 (JeKo-1 cells): < 5.00
- Dmax (BTK [2]): > 75%
- DC50 (BTK [2]): > 50 nM

Compound: Nc1ncnc2c1c(-c1ccc(Oc3ccccc3)cc1)nn2[C@@H]1CCCN(C2CCN(C(=O)N3CCC(CN4CCN(c5ccc6c(c5)C(=O)N(C5CCC(=O)NC5=O)C6=O)CC4)CC3)CC2)C1 (stereo partly drawn) [Compound 169, 5-(4-((1-((R)-3-(4-amino-3-(4-phenoxyphenyl)-1H-pyrazolo(3,4-d)pyrimidin-1-yl)-(1,4′-bipiperidine)-1′-carbonyl)piperidin-4-yl)methyl)piperazin-1-yl)-2-(2,6-dioxopiperidin-3-yl)isoindoline-1,3-dione]
- pIC50 (Mino cells): 5.00 to 6.00
- degradation of BTK protein at 10^−6 M (BTK [1]): degradation
- degradation of BTK protein (BTK [1]): dose-dependent degradation
- pIC50 (JeKo-1 cells): > 6.00
- Dmax (BTK [2]): > 90%
- DC50 (BTK [2]): 10 to 50 nM

Compound: Nc1ncnc2c1c(-c1ccc(Oc3ccccc3)cc1)nn2[C@@H]1CCCN(C(=O)N2CCC(CN3CCN(c4ccc5c(c4)C(=O)N(C4CCC(=O)NC4=O)C5=O)CC3)CC2)C1 (stereo partly drawn) [Compound 55, 5-(4-((1-((R)-3-(4-amino-3-(4-phenoxyphenyl)-1H-pyrazolo(3,4-d)pyrimidin-1-yl)piperidine-1-carbonyl)piperidin-4-yl)methyl)piperazin-1-yl)-2-(2,6-dioxopiperidin-3-yl)isoindoline-1,3-dione]
- pIC50 (Mino cells): > 6.00
- degradation of BTK protein at 10^−6 M (BTK [1]): degradation
- degradation of BTK protein (BTK [1]): dose-dependent degradation
- pIC50 (JeKo-1 cells): > 6.00
- Dmax (BTK [2]): > 90%
- DC50 (BTK [2]): 10 to 50 nM

Compound: Nc1ncnc2c1c(-c1ccc(Oc3ccccc3)cc1)nn2C1CCN(CC2CCN(C(=O)N3CCN(c4ccc5c(c4)C(=O)N(C4CCC(=O)NC4=O)C5=O)CC3)CC2)CC1 (stereo not shown) [Compound 35, 5-(4-(4-((4-(4-amino-3-(4-phenoxyphenyl)-1H-pyrazolo(3,4-d)pyrimidin-1-yl)piperidin-1-yl)methyl)piperidine-1-carbonyl)piperazin-1-yl)-2-(2,6-dioxopiperidin-3-yl)isoindoline-1,3-dione]
- pIC50 (Mino cells): > 6.00
- degradation of BTK protein at 10^−6 M (BTK [1]): degradation
- degradation of BTK protein (BTK [1]): dose-dependent degradation
- pIC50 (JeKo-1 cells): 5.00 to 6.00
- Dmax (BTK [2]): > 90%
- DC50 (BTK [2]): < 10 nM

Compound: Nc1ncnc2c1c(-c1ccc(Oc3ccccc3)cc1)nn2[C@@H]1CCCN(CC2CCN(C(=O)N3CCC(CCN4CCN(c5ccc6c(c5)C(=O)N(C5CCC(=O)NC5=O)C6=O)CC4)CC3)CC2)C1 (stereo partly drawn) [Compound 33, 5-(4-(2-(1-(4-(((R)-3-(4-amino-3-(4-phenoxyphenyl)-1H-pyrazolo(3,4-d)pyrimidin-1-yl)piperidin-1-yl)methyl)piperidine-1-carbonyl)piperidin-4-yl)ethyl)piperazin-1-yl)-2-(2,6-dioxopiperidin-3-yl)isoindoline-1,3-dione]
- pIC50 (Mino cells): 5.00 to 6.00
- degradation of BTK protein at 10^−6 M (BTK [1]): degradation
- degradation of BTK protein (BTK [1]): dose-dependent degradation
- pIC50 (JeKo-1 cells): 5.00 to 6.00
- Dmax (BTK [2]): > 90%
- DC50 (BTK [2]): > 50 nM

Compound: Nc1ncnc2c1c(-c1ccc(Oc3ccccc3)cc1)nn2[C@@H]1CCCN(C(=O)N2CCN(c3ccc4c(c3)C(=O)N(C3CCC(=O)NC3=O)C4=O)CC2)C1 (stereo partly drawn) [Compound 45, 5-(4-((R)-3-(4-amino-3-(4-phenoxyphenyl)-1H-pyrazolo[3,4-d]pyrimidin-1-yl)piperidine-1-carbonyl)piperazin-1-yl)-2-(2,6-dioxopiperidin-3-yl)isoindoline-1,3-dione]
- pIC50 (Mino cells): < 5.00
- degradation of BTK protein at 10^−6 M (BTK [1]): degradation
- pIC50 (JeKo-1 cells): < 5.00
- Dmax (BTK [2]): > 50%
- DC50 (BTK [2]): > 50 nM

Compound: Nc1ncnc2c1c(-c1ccc(Oc3ccccc3)cc1)nn2[C@@H]1CCCN(C2CCN(C(=O)N3CCN(c4ccc5c(c4)C(=O)N(C4CCC(=O)NC4=O)C5=O)CC3)CC2)C1 (stereo partly drawn) [Compound 159, 5-(4-((R)-3-(4-amino-3-(4-phenoxyphenyl)-1H-pyrazolo(3,4-d)pyrimidin-1-yl)-(1,4′-bipiperidine)-1′-carbonyl)piperazin-1-yl)-2-(2,6-dioxopiperidin-3-yl)isoindoline-1,3-dione]
- pIC50 (Mino cells): 5.00 to 6.00
- degradation of BTK protein at 10^−6 M (BTK [1]): degradation
- pIC50 (JeKo-1 cells): < 5.00
- Dmax (BTK [2]): > 50%
- DC50 (BTK [2]): > 50 nM

Compound: Nc1ncnc2c1c(-c1ccc(Oc3ccccc3)cc1)nn2C1CCN(C(=O)N2CCC(CN3CCN(c4ccc5c(c4)C(=O)N(C4CCC(=O)NC4=O)C5=O)CC3)CC2)CC1 (stereo not shown) [Compound 85, 5-(4-((1-(4-(4-amino-3-(4-phenoxyphenyl)-1H-pyrazolo(3,4-d)pyrimidin-1-yl)piperidine-1-carbonyl)piperidin-4-yl)methyl)piperazin-1-yl)-2-(2,6-dioxopiperidin-3-yl)isoindoline-1,3-dione]
- pIC50 (Mino cells): > 6.00
- degradation of BTK protein at 10^−6 M (BTK [1]): degradation
- degradation of BTK protein (BTK [1]): dose-dependent degradation
- pIC50 (JeKo-1 cells): > 6.00
- Dmax (BTK [2]): > 90%
- DC50 (BTK [2]): < 10 nM

Compound: Nc1ncnc2c1c(-c1ccc(Oc3ccccc3)cc1)nn2[C@@H]1CCCN(C2CCN(C(=O)N3CCC(CCN4CCN(c5ccc6c(c5)C(=O)N(C5CCC(=O)NC5=O)C6=O)CC4)CC3)CC2)C1 (stereo partly drawn) [Compound 181, 5-(4-(2-(1-((R)-3-(4-amino-3-(4-phenoxyphenyl)-1H-pyrazolo(3,4-d)pyrimidin-1-yl)-(1,4′-bipiperidine)-1′-carbonyl)piperidin-4-yl)ethyl)piperazin-1-yl)-2-(2,6-dioxopiperidin-3-yl)isoindoline-1,3-dione]
- pIC50 (Mino cells): 5.00 to 6.00
- degradation of BTK protein at 10^−6 M (BTK [1]): degradation
- degradation of BTK protein (BTK [1]): dose-dependent degradation
- pIC50 (JeKo-1 cells): 5.00 to 6.00
- Dmax (BTK [2]): > 75%
- DC50 (BTK [2]): 10 to 50 nM

Compound: Nc1ncnc2c1c(-c1ccc(Oc3ccccc3)cc1)nn2[C@@H]1CCCN(CC2CCN(C(=O)N3CCC(C4CCN(c5ccc6c(c5)C(=O)N(C5CCC(=O)NC5=O)C6=O)CC4)CC3)CC2)C1 (stereo partly drawn) [Compound 29, 5-(1′-(4-(((R)-3-(4-amino-3-(4-phenoxyphenyl)-1H-pyrazolo(3,4-d)pyrimidin-1-yl)piperidin-1-yl)methyl)piperidine-1-carbonyl)-(4,4′-bipiperidin)-1-yl)-2-(2,6-dioxopiperidin-3-yl)isoindoline-1,3-dione]
- pIC50 (Mino cells): 5.00 to 6.00
- degradation of BTK protein at 10^−6 M (BTK [1]): degradation
- pIC50 (JeKo-1 cells): 5.00 to 6.00
- Dmax (BTK [2]): > 90%
- DC50 (BTK [2]): > 50 nM

Compound: Nc1ncnc2c1c(-c1ccc(Oc3ccccc3)cc1)nn2C1CCN(CC2CCN(C(=O)N3CCC(N4CCN(c5ccc6c(c5)C(=O)N(C5CCC(=O)NC5=O)C6=O)CC4)CC3)CC2)CC1 (stereo not shown) [Compound 37, 5-(4-(1-(4-((4-(4-amino-3-(4-phenoxyphenyl)-1H-pyrazolo(3,4-d)pyrimidin-1-yl)piperidin-1-yl)methyl)piperidine-1-carbonyl)piperidin-4-yl)piperazin-1-yl)-2-(2,6-dioxopiperidin-3-yl)isoindoline-1,3-dione]
- pIC50 (Mino cells): > 6.00
- degradation of BTK protein at 10^−6 M (BTK [1]): degradation
- degradation of BTK protein (BTK [1]): dose-dependent degradation
- pIC50 (JeKo-1 cells): 5.00 to 6.00
- Dmax (BTK [2]): > 90%
- DC50 (BTK [2]): 10 to 50 nM

Compound: Nc1ncnc2c1c(-c1ccc(Oc3ccccc3)cc1)nn2[C@@H]1CCCN(C(=O)N2CCC(C3CCN(c4ccc5c(c4)C(=O)N(C4CCC(=O)NC4=O)C5=O)CC3)CC2)C1 (stereo partly drawn) [Compound 49, 5-(1′-((R)-3-(4-amino-3-(4-phenoxyphenyl)-1H-pyrazolo(3,4-d)pyrimidin-1-yl)piperidine-1-carbonyl)-(4,4′-bipiperidin)-1-yl)-2-(2,6-dioxopiperidin-3-yl)isoindoline-1,3-dione]
- pIC50 (Mino cells): 5.00 to 6.00
- degradation of BTK protein at 10^−6 M (BTK [1]): degradation
- pIC50 (JeKo-1 cells): 5.00 to 6.00
- Dmax (BTK [2]): > 90%
- DC50 (BTK [2]): 10 to 50 nM
